Assay results from patent US12516019B2, “Amphoteric compounds” (Eastman Chemical Company, priority 2015, dated 2026).

Assays:
Assay type in all cases: physicochemical
[1] = Water solubility: heated to a clear solution, cooled to ambient temperature; conditions: ambient temperature after heating to a clear solution
Protocol: To a vial was added 5.00 g of 3-((lauryloxycarbonylpropyl)-dimethylammonio)propanesulfonate and 10.00 g of water. The mixture was heated to 100° C. for an hour to afford a clear solution. The mixture was then allowed to cool to ambient temperature, at which point it was still homogeneous with no precipitate or gel.
To a vial was added 5.00 g of 3-((lauryloxycarbonylmethyl)-dimethylammonio)propanesulfonate and 45.00 g of water. The mixture was heated to 100° C. for an hour to afford a clear solution. The mixture was then allowed to cool to ambient temperature resulting in a white solid. The solid was recovered by filtration and dried in a vacuum oven at 55° C. in vacuo with a nitrogen sweep overnight to afford 4.58 g of 3-((lauryloxycarbonylmethyl)-dimethylammonio)propanesulfonate.
To a vial was added 10.00 g of 3-((4-laurylamino-4-oxobutyl)-dimethylammonio)propanesulfonate and 20.00 g of water. The mixture was heated to 100° C. for an hour to afford a clear solution. The mixture was then allowed to cool to ambient temperature, at which point it was still homogeneous with no precipitate or gel.
The solubility of 3-((2-laurylamino-2-oxoethyl)dimethylammonio)-propanesulfonate was determined by mixing 5.00 g of material with 45.00 g of water and heating to 85° C. for 1 h to afford a clear 10 wt % solution. The material was allowed to cool to ambient temperature to afford a precipitate. The precipitate was filtered, and the resulting solid was dried in vacuo at 50° C. with a nitrogen sweep for 3 days to afford 4.54 g of recovered 3-((2-laurylamino-2-oxoethyl)dimethylammonio)propanesulfonate.

[2] = Foam height test, Standard Test Method for Foaming Properties of Surface-Active Agents (ASTM 1173-07); conditions: 49° C.; for Foam height at time t = 0: t = 0 min; for Foam height at time t = 1: t = 1 min; for Foam height at time t = 2: t = 2 min; for Foam height at time t = 3: t = 3 min; for Foam height at time t = 4: t = 4 min; for Foam height at time t = 5: t = 5 min
Description: The Standard Test Method for Foaming Properties of Surface-Active Agents (ASTM 1173-07) for 0.1 wt % and 1.0 wt % was used to determine the foaming properties of the amphoteric compounds of the formula 1 described herein. This method generates foam under low-agitation conditions and is generally used for moderate- and high-foam surfactants. This test gathers data on initial foam height and foam decay. Foam decay provides information on foam stability.
The apparatus for carrying out this test includes a jacketed column and a pipet. The jacketed column serves as a receiver, while the pipet delivers the surface-active solution.
Solutions of each surface-active agent to be measured were prepared in borosilicate glass jars a day ahead of time, using ambient temperature ingredients, and were slowly rolled overnight to homogenize. The solutions were then removed from the rollers and equilibrated in a constant temperature bath (49° C.+/−1° C.) for at least 1 hour before measurement. The solution of the amphoteric compound to be tested was added to the receiver (50 mL) and to the pipet (200 mL). The pipet was positioned above the receiver and opened. As the solution fell and made contact with the solution in the receiver, foam was generated. When the pipet was empty, the time was noted and an initial foam height was recorded. The foam height was recorded each minute for five minutes. Exact size specifications for the glassware can be found in ASTM 1173-07. The foam height results for each amphoteric compound 1 and representative standards are listed below in Tables 1 (0.1% concentration) and 2 (1% concentration).

[3] = Critical micelle concentration from surface tension (Wilhelmy plate, K100C Tensiometer); conditions: deionized water, ambient temperature
Protocol: The critical micelle concentration (CMC) is an important characteristic of a surfactant, and the CMC values were determined for the amphoteric compounds of formula 1. The CMC is defined as the concentration at which micelle formation first begins, and for surface tension determination of CMC, is typically assigned as the concentration of the intersection of two straight lines through the data, where the first line is the linear portion of the initial decline in surface tension with increasing surfactant concentration, and the second is the line of constant surface tension.
The critical micelle concentration was determined from plots of surface tension as a function of the logarithm of active surfactant concentration. Surface tension was measured via the Wilhelmy plate technique. In this method, the downward force of a rigorously clean plate probe that just contacts the liquid surface of the test sample is measured, and the surface tension is calculated from knowledge of the contact angle the liquid makes with the probe surface and the length of the probe plate.
A K100C Tensiometer (Kruss GmbH) was used to measure surface tension of solutions in a glass sample vessel. All measurements were made under ambient temperature conditions.
The tensiometer was equipped with a computer-controlled microdispensing and aspirating system to automate surfactant concentration adjustments of the test solution while maintaining constant solution volume between successive measurements. A roughened platinum plate probe was used. Cleanliness of probe, sample vessel, and microdispensing system was verified after cleaning between samples by measuring the surface tension of pure deionized water run through the system as a control.
100 mL of the 1 mg/L surfactant solution was added to the clean sample vessel and placed in the instrument. The plate probe was rinsed with deionized water and flame treated to combust off residual organic impurities, then mounted in position in the tensiometer. The experiment was initiated and run through the LabDesk version 3.2.2 (Kruss GmbH) software.
The surface tension measurements were run sequentially (and automatically) from most dilute to most concentrated by incrementally injecting known volume aliquots of the 10,000 mg/L surfactant solution into the sample, homogenizing the sample after injection by stirring for 30 seconds via a magnetic stir bar in the solution, and then aspirating out equal volume that was added to the sample vessel to keep the total sample volume constant for each measurement.
The sample vessel was then automatically moved into measurement position, and the surface tension measurement was made and recorded. This sequence was repeated until all concentrations had been measured.
The active surfactant concentration range spanned from 1 mg/L to 5000 mg/L over 50 concentration increments, equally spaced on a logarithmic scale over the full range of concentrations measured.
The sample at each concentration was measured 10 times, and the average of the 10 measures was plotted against the logarithm of the surfactant concentration.
After completing the full range of concentrations, the software provided best-fit lines to estimate CMC, and these regression lines were manually adjusted as needed to give the broadest range of linear behavior for each line.

| SMILES | solubility in water [1] | Foam height at time t = 0 ([2]; 1 g/L (0.1 weight %)) | Foam height at time t = 1 ([2]; 1 g/L (0.1 weight %)) | Foam height at time t = 2 ([2]; 1 g/L (0.1 weight %)) | Foam height at time t = 3 ([2]; 1 g/L (0.1 weight %)) | Foam height at time t = 4 ([2]; 1 g/L (0.1 weight %)) | Foam height at time t = 5 ([2]; 1 g/L (0.1 weight %)) | Foam height at time t = 0 ([2]; 10 g/L (1.0 weight %)) | Foam height at time t = 1 ([2]; 10 g/L (1.0 weight %)) | Foam height at time t = 2 ([2]; 10 g/L (1.0 weight %)) | Foam height at time t = 3 ([2]; 10 g/L (1.0 weight %)) | Foam height at time t = 4 ([2]; 10 g/L (1.0 weight %)) | Foam height at time t = 5 ([2]; 10 g/L (1.0 weight %)) | Critical micelle concentration (CMC) [3] |
| --- | --- | --- | --- | --- | --- | --- | --- | --- | --- | --- | --- | --- | --- | --- |
| CCCCCCCCCCCCOC(=O)CCC[N+](C)(C)CCCS(=O)(=O)[O-] [Example 5, 3-(3-(Lauryloxycarbonylpropyl)dimethylammonio)-propanesulfonate] | greater than or equal to 33 wt % | 157 mm | 154 mm | 151 mm | 149 mm | 147 mm | 146 mm | 170 mm | 166 mm | 161 mm | 158 mm | 154 mm | 152 mm | 53.9 mg/L |
| CCCCCCCCCCCCOC(=O)C[N+](C)(C)CCCS(=O)(=O)[O-] [Comparative Example 2, 3-((Lauryloxycarbonylmethyl)dimethylammonio)-propanesulfonate, reference compound] | 0.92 wt % | – | – | – | – | – | – | – | – | – | – | – | – | – |
| CCCCCCCCCCCCNC(=O)C[N+](C)(C)CCCS(=O)(=O)[O-] [Comparative Example 4, 3-((2-Laurylamino-2-oxoethyl)dimethylammonio)-propanesulfonate, reference compound] | 1.02 wt % | – | – | – | – | – | – | – | – | – | – | – | – | – |
| CCCCCCCCCCCCNC(=O)CCC[N+](C)(C)CCCS(=O)(=O)[O-] [Example 14, 3-((4-Laurylamino-4-oxobutyl)dimethylammonio)-propanesulfonate] | greater than or equal to 33 wt % | 143 mm | 133 mm | 123 mm | 108 mm | 95 mm | 75 mm | 157 mm | 145 mm | 137 mm | 129 mm | 122 mm | 116 mm | 133.9 mg/L |
